Source: patent publication US4493838A, “Medicaments containing derivatives of 3-chloro-quinoline” (Pharmindustrie, priority 1980, dated 1985)

Key:
[1] = biological target: cerebral receptor sites of the benzodiazepines; conditions: 3H-Diazepam; constant used in the formula for Ki; read-out: KD (constant of affinity); cited from earlier work
[2] = biological target: cerebral receptor sites of the benzodiazepines; experiment: Affinity for the cerebral receptor sites of the benzodiazepines (displacement of 3H-Diazepam, method of Mohler et al.); conditions: displacement of 3H-Diazepam from its binding site; Ki calculated from IC50, C and KD
Description: The products have been tested according to the method of Mohler et al., Life Science, 1977, 20, 2101, which is relied on herein.

Row | SMILES | Kd [1] [µM] | Ki [2] [µM]
1 | CN1C(=O)CN=C(c2ccccc2)c2cc(Cl)ccc21 [3H Diazepam] | 2.74 | –
2 | Clc1cnc2ccccc2c1CCC1CCNCC1 [Example 1, 3-Chloro-4-[2-(4-piperidyl)-ethyl]-quinoline] | – | 2
3 | COc1ccc2ncc(Cl)c(CCC3CCNCC3)c2c1 [Example 3, 3-Chloro-6-methoxy-4-[2-(4-piperidyl)-ethyl]-quinoline] | – | 12
4 | Cc1nc2ccccc2c(CCC2CCNCC2)c1Cl [Example 4, 2-Methyl-3-chloro-4-[2-(4-piperidyl)-ethyl]-quinoline] | – | 1
5 | Clc1c(-c2ccccc2)nc2ccccc2c1CCC1CCNCC1 [Example 5, 2-Phenyl-3-chloro-4-[2-(4-piperidyl)-ethyl]-quinoline] | – | 0.5
6 | Clc1cnc2ccccc2c1CC1CCNCC1 [Example 6, 3-Chloro-4-[(4-piperidyl)-methyl]-quinoline] | – | 5
7 | Cc1cccc2c(CC3CCNCC3)c(Cl)cnc12 [Example 8, 3-Chloro-8-methyl-4-[(4-piperidyl)-methyl]-quinoline] | – | 10
8 | Clc1cc2ccccc2nc1CCC1CCNCC1 [Example 9, 3-Chloro-2-[2-(4-piperidyl)-ethyl]-quinoline] | – | 5
